Data on six compounds can be found in ChEMBL document CHEMBL5625212, “De novo designed self-assembling helicomimetic lipooligoureas with antibacterial activity” (Eur J Med Chem, 2023).

In brackets after ≈: the same amount, converted by molar mass.

Data set [1] concerns Staphylococcus aureus. The data set is described as follows: Antibacterial activity against methicillin resistant Staphylococcus aureus 5288/13 assessed as reduction in bacterial growth measured after 24 hrs by spectrophotometer based analysis. It is filed as functional.
A short description of data set [2]: Aggregation property of compound in PBS assessed as critical aggregation concentration. In kind it is physicochemical. Conditions: buffer.
For data set [3], the system named is Staphylococcus aureus. The data set is described as follows: Antibacterial activity against Staphylococcus aureus ATCC 29213 assessed as reduction in bacterial growth measured after 24 hrs by spectrophotometer based analysis. It is filed as functional.
Data set [4] can be described thus: Proteolytic stability of the compound in human serum assessed as drug degradation measured after 96 hrs by RP-HPLC analysis. It is filed as ADME, cell-free. Conditions: read-out: Drug degradation.
The test system of data set [5] is Staphylococcus epidermidis. Briefly: Antibacterial activity against Staphylococcus epidermidis ATCC 12228 assessed as reduction in bacterial growth measured after 24 hrs by spectrophotometer based analysis. It is filed as functional.
In data set [6] the test system is Staphylococcus aureus. The data set is described as follows: Antibacterial activity against methicillin resistant Staphylococcus aureus 4811/13 assessed as reduction in bacterial growth measured after 24 hrs by spectrophotometer based analysis. In kind it is functional.
Data set [7] relates to Staphylococcus aureus. The data set is described as follows: Antibacterial activity against methicillin resistant Staphylococcus aureus 401/5 assessed as reduction in bacterial growth measured after 24 hrs by spectrophotometer based analysis. In kind it is functional.
The subject of a further data set is Enterococcus faecalis. The data set is described as follows: Antibacterial activity against Enterococcus faecalis ATCC 14506 assessed as reduction in bacterial growth measured after 24 hrs by spectrophotometer based analysis. In kind it is functional.
A short description of data set [8]: Proteolytic stability of the compound in human serum assessed as drug degradation measured after 24 hrs by RP-HPLC analysis. In kind it is ADME, cell-free. Conditions: read-out: Drug degradation.
The next data set relates to Pseudomonas aeruginosa. Briefly: Antibacterial activity against Pseudomonas aeruginosa PA01 PCM 499 assessed as reduction in bacterial growth measured after 24 hrs by spectrophotometer based analysis. It is filed as functional.
Another data set concerns Salmonella typhimurium. The data set is described as follows: Antibacterial activity against Salmonella enterica subsp. enterica serovar Typhimurium TT622 assessed as reduction in bacterial growth measured after 24 hrs by spectrophotometer based analysis. In kind it is functional.
The subject of a further data set is Yersinia enterocolitica. Briefly: Antibacterial activity against Yersinia enterocolitica PCM 2081 assessed as reduction in bacterial growth measured after 24 hrs by spectrophotometer based analysis. It is filed as functional.
For the next data set, the system named is Klebsiella pneumoniae. Briefly: Antibacterial activity against Klebsiella pneumoniae PCM 1 assessed as reduction in bacterial growth measured after 24 hrs by spectrophotometer based analysis. It is filed as functional.
In the next data set the test system is Escherichia coli. Briefly: Antibacterial activity against Escherichia coli ST2-8624 O157 H7 assessed as reduction in bacterial growth measured after 24 hrs by spectrophotometer based analysis. It is filed as functional.
A short description of data set [9]: Proteolytic stability of the compound in human serum assessed as drug degradation measured within 4 hrs by RP-HPLC analysis. It is filed as ADME, cell-free.

A word on the MIC: it is the lowest concentration that inhibits growth of the organism. `CCCCCCCCCC(=O)N[C@H](CNC(=O)N[C@@H](CCN)CNC(=O)N[C@@H](CCN)CN[C@H](CNC(=O)N[C@@H](CCN)CNC(N)=O)CC(C)C)Cc1ccccc1`: the minimum inhibitory concentration (MIC) in the data set on Staphylococcus aureus [1] came to 30 µg/mL (≈ 36 µM); with Staphylococcus aureus [3] it was 20 µg/mL (≈ 24 µM); in data set [5], 20 µg/mL (≈ 24 µM); with Staphylococcus aureus [6], 30 µg/mL (≈ 36 µM); with Staphylococcus aureus [7], 20 µg/mL (≈ 24 µM); in the data set with Enterococcus faecalis it was 40 µg/mL (≈ 48 µM). For the same compound, the CAC in data set [2] was found to be 87 µM. Also, the metabolised at 96 h in [4] was 8%.

Take `CCCCCCCCCC(=O)N[C@@H](Cc1c[nH]c2ccccc12)C(=O)N[C@H](CC(N)=O)C(=O)N[C@@H](CC(=O)O)C(=O)N[C@@H]1C(=O)NCC(=O)N[C@@H](CCCN)C(=O)N[C@@H](CC(=O)O)C(=O)N[C@H](C)C(=O)N[C@@H](CC(=O)O)C(=O)NCC(=O)N[C@H](CO)C(=O)N[C@@H]([C@H](C)CC(=O)O)C(=O)N[C@@H](CC(=O)c2ccccc2N)C(=O)O[C@@H]1C`: the minimal inhibitory concentration (MIC) with Staphylococcus aureus [1] was determined as 2 µg/mL (≈ 1.23 µM); with Staphylococcus aureus [3], 2 µg/mL (≈ 1.23 µM); in data set [5] it was 1 µg/mL (≈ 0.617 µM); in the data set with Staphylococcus aureus [6], 2 µg/mL (≈ 1.23 µM); in the data set with Staphylococcus aureus [7] it was 1.5 µg/mL (≈ 0.926 µM); with Enterococcus faecalis, 3.5 µg/mL (≈ 2.16 µM).

Turning to `CCCCCCCCCC(=O)N[C@H](CNC(=O)N[C@@H](CCCCN)CNC(=O)N[C@@H](CCCCN)CN[C@H](CNC(=O)N[C@@H](CCCCN)CNC(N)=O)CC(C)C)Cc1ccccc1`, the minimum inhibitory concentration (MIC) in the data set with Staphylococcus aureus [1] was found to be 40 µg/mL (≈ 43.6 µM); in the data set with Staphylococcus aureus [3], 30 µg/mL (≈ 32.7 µM); in data set [5] it was 30 µg/mL (≈ 32.7 µM); in the data set on Staphylococcus aureus [6], 30 µg/mL (≈ 32.7 µM); in the data set with Staphylococcus aureus [7], 30 µg/mL (≈ 32.7 µM). Besides, in [2], the CAC was 79 µM. Further, the metabolised at 96 h in [4] was determined as 15%.

Regarding `CCCCCCCCCC(=O)N[C@H](CNC(=O)N[C@@H](CCN)CNC(=O)N[C@H](CN[C@H](CNC(=O)N[C@@H](CCN)CNC(N)=O)CC(C)C)CC(C)C)Cc1ccccc1`, the MIC came out at 5 µg/mL (≈ 5.9 µM) in the data set with Staphylococcus aureus [1]; 5 µg/mL (≈ 5.9 µM) with Staphylococcus aureus [3]; 10 µg/mL (≈ 11.8 µM) in the data set with Pseudomonas aeruginosa; 20 µg/mL (≈ 23.6 µM) in the data set with Salmonella typhimurium; 10 µg/mL (≈ 11.8 µM) in the data set with Yersinia enterocolitica; 20 µg/mL (≈ 23.6 µM) in the data set on Klebsiella pneumoniae. In addition, the minimal inhibitory concentration (MIC) in [5] amounted to 5 µg/mL (≈ 5.9 µM); in the data set on Staphylococcus aureus [6] it was 5 µg/mL (≈ 5.9 µM); with Escherichia coli, 10 µg/mL (≈ 11.8 µM); in the data set on Staphylococcus aureus [7] it was 5 µg/mL (≈ 5.9 µM); in the data set with Enterococcus faecalis, 5 µg/mL (≈ 5.9 µM). In data set [2], the CAC came out at 40 µM. In data set [8], the metabolised at 24 h came to 4%. In addition, the metabolised at 96 h in [4] is 8%.

For the compound `NC(=O)[C@H](Cc1ccccc1)NC(=O)[C@H](Cc1ccccc1)NC(=O)[C@@H]1CCCN1C(=O)[C@@H](N)Cc1ccc(O)cc1` [ENDOMORPHIN 2], the Stability result in data set [9] was “Unstable”.

Regarding `CCCCCCCCCC(=O)N[C@H](CNC(=O)N[C@@H](CCN)CNC(=O)N[C@@H](CCN)CN[C@H](CNC(=O)N[C@H](CNC(N)=O)CC(C)C)CC(C)C)Cc1ccccc1`, the minimum inhibitory concentration (MIC) in the data set with Staphylococcus aureus [1] amounted to 10 µg/mL (≈ 11.8 µM); with Staphylococcus aureus [3], 10 µg/mL (≈ 11.8 µM); in the data set on Pseudomonas aeruginosa, 30 µg/mL (≈ 35.4 µM); in the data set on Salmonella typhimurium it was 30 µg/mL (≈ 35.4 µM); in the data set with Yersinia enterocolitica it was 30 µg/mL (≈ 35.4 µM); in the data set on Klebsiella pneumoniae, 30 µg/mL (≈ 35.4 µM). The minimum inhibitory concentration (MIC) in data set [5] stood at 10 µg/mL (≈ 11.8 µM); in the data set with Staphylococcus aureus [6] it was 10 µg/mL (≈ 11.8 µM); in the data set with Escherichia coli, 30 µg/mL (≈ 35.4 µM); with Staphylococcus aureus [7], 10 µg/mL (≈ 11.8 µM); in the data set with Enterococcus faecalis, 20 µg/mL (≈ 23.6 µM). Moreover, in data set [2], the CAC came out at 56 µM. In [4], the metabolised at 96 h came out at 8%.
